According to patent US20240246920A1, “TRIAZOLE DERIVATIVES WITH ANTIFUNGAL ACTIVITY” (King's College London, priority 2020, published 2024):
Values after ≈ are worked out from the molar mass of the structure shown. Where two headings read alike, the source gives them in different places.

Tests used:
[1] = system: Aspergillus fumigatus ATCC 16424; experiment: Aspergillus panel MIC; assay type: cell-based; details: Table 8
Experimental: (§1) Starter cultures of fungal strains to be tested were grown in 3 mL of RPMI 2% glucose media incubated at 37° C. with shaking at 200 rpm overnight. The culture media used was 900 mL H2O; 10.4 g RPMI 1640 (with L-glutamine and a pH indicator but without bicarbonate); 34.5 g MOPS and 18 g glucose. The pH of the media was adjusted to 7.0 with 1 M sodium hydroxide.
(§2) Solutions of the compound to be tested were prepared by dissolving the compound in DMSO and subsequently into media to the desired concentrations. 200 μL of compound solution was then added to the wells of the 96-well plate using a serial dilution method row-by row of the plate to give a compound concentration gradient across the plate of from 128 μg/mL to 0.25 μg/mL. The last two rows of each plate were control rows containing the culture media alone and the media plus fungi.
(§3) The fungi starter cultures were diluted 1:10 in water in cuvettes. This was then further diluted to an optical density (OD600) of 0.01 in media. 100 μL of the fungi was added to each well giving a starting concentration of fungus of 0.5-5×10^5/mL. One species of fungus was used on each plate. The plates were then held at 37° C. for 24 hours.
(§4) A plate reader was used to measure growth in each well at OD530 nm and the MIC was determined for each test compound. The MIC is defined as the lowest concentration giving rise to inhibition of ≥50% of that of the drug-free control well containing the fungus and media.
(§5) The compound of Example 2 (which corresponds to compound number 2) was tested against a panel of Aspergillus strains using a method analogous to that described above for the Candida Panel.

[2] = system: Aspergillus fulavus ATCC 204304; experiment: Aspergillus panel MIC; assay type: cell-based; details: Table 8
Experimental: as §1, §2, §3, §4, §5

[3] = system: Aspergillus fumigatus ATCC 1028; experiment: Aspergillus panel MIC; assay type: cell-based; details: Table 8
Experimental: as §1, §2, §3, §4, §5

[4] = system: Aspergillus fumigatus ATCC 10894; experiment: Aspergillus panel MIC; assay type: cell-based; details: Table 8
Experimental: as §1, §2, §3, §4, §5

[5] = system: Aspergillus carbonarius ATCC 8740; experiment: Aspergillus panel MIC; assay type: cell-based; details: Table 8
Experimental: as §1, §2, §3, §4, §5

[6] = system: Aspergillus fumigatus ATCC 13073; experiment: Aspergillus panel MIC; assay type: cell-based; details: Table 8
Experimental: as §1, §2, §3, §4, §5

[7] = system: Aspergillus fumigatus ATCC 204305; experiment: Aspergillus panel MIC; assay type: cell-based; details: Table 8
Experimental: as §1, §2, §3, §4, §5

[8] = system: C. krusei NCPF3876; experiment: microbe, parasite or virus in culture; assay type: cell-based, Candida krusei; details: Pichia kudriavzevii
Method in brief: (§6)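 MIC taken as lowest concentration inhibiting growth ≥50% relative to drug-free control, from OD530 after 24 hours at 37° C. Fungi at 0.5-5×10^5/mL were exposed to serially diluted compound in RPMI 1640/MOPS/2% glucose medium adjusted to pH 7.0.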

[9] = system: C. albicans NCPF3281; experiment: Candida panel MIC, serial dilution in 96-well plates; assay type: cell-based, Candida albicans; details: NCPF3281, read-out: MIC C. albicans NCPF3281
Method in brief: (§7)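 Overnight starter cultures were diluted to OD600 0.01 and added to serially diluted compound (128 to 0.25 μg/mL) in MOPS-buffered RPMI with 2% glucose, pH 7.0, giving 0.5-5×10^5 cells/mL. After 24 h at 37 °C, OD530 was measured and the ≥50% inhibition endpoint taken as MIC.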

[10] = system: C. parapsilosis NCPF3209; experiment: microbe, parasite or virus in culture; assay type: cell-based, Candida parapsilosis; details: Lodderomyces parapsilosis
Method in brief: as §6

[11] = system: C. albicans 3880; experiment: Candida albicans panel MIC; assay type: cell-based; details: Table 6, Candida albicans panel
Experimental: (§8) The minimum inhibitory concentration of test compounds were determined in a panel of Candida species (see Table 4 below), using the a serial dilution method in 96-well plates using the following protocol.
as §1, §2, §3, §4
(§9) The compounds shown in Table 6 were tested against a further panel of Candida albicans.

[12] = system: C. albicans 3882; experiment: Candida albicans panel MIC; assay type: cell-based; details: Table 6, Candida albicans panel
Experimental: as §8, §1, §2, §3, §4, §9

[13] = system: C. albicans 3363; experiment: Candida albicans panel MIC; assay type: cell-based; details: Table 6, Candida albicans panel
Experimental: as §8, §1, §2, §3, §4, §9

[14] = system: C. albicans 3881; experiment: Candida albicans panel MIC; assay type: cell-based; details: Table 6, Candida albicans panel
Experimental: as §8, §1, §2, §3, §4, §9

[15] = system: C. albicans 3645; experiment: Candida albicans panel MIC; assay type: cell-based; details: Table 6, Candida albicans panel
Experimental: as §8, §1, §2, §3, §4, §9

[16] = system: C. albicans 3990; experiment: Candida albicans panel MIC; assay type: cell-based; details: Table 6, Candida albicans panel
Experimental: as §8, §1, §2, §3, §4, §9

[17] = system: C. albicans 8112; experiment: Candida albicans panel MIC; assay type: cell-based; details: Table 6, Candida albicans panel
Experimental: as §8, §1, §2, §3, §4, §9

[18] = system: Candida auris TDG1102; experiment: Candida panel MIC, serial dilution in 96-well plates; assay type: cell-based; details: Candidozyma auris, read-out: MIC Candida auris TDG1102
Method in brief: as §7

[19] = system: Candida auris TDG2512; experiment: as above; assay type: cell-based; details: Candidozyma auris, TDG2512; Table 4, extended panel; 24 hours, ≥50% inhibition; read-out: MIC Candida auris TDG2512
Method in brief: as §7

[20] = system: C. auris TDG1912; experiment: as above; assay type: cell-based; details: Candidozyma auris, TDG1912; Table 4; 24 hours, ≥50% inhibition; read-out: MIC C. auris TDG1912
Method in brief: as §7

[21] = system: C. tropicalis NCPF8760; experiment: as above; assay type: cell-based
Method in brief: as §7

[22] = system: Aspergillus strains; experiment: Aspergillus panel MIC, statement on the whole panel; assay type: cell-based; details: Table 8, in words
Experimental: as §5

[23] = system: panel of Candida species; experiment: Candida panel MIC, statements on the whole panel; assay type: cell-based; details: in words
Experimental: as §8, §1, §2, §3, §4

[24] = system: C. glabrata NCPF8018; experiment: Candida panel MIC, serial dilution in 96-well plates; assay type: cell-based, Candida glabrata; details: Nakaseomyces glabratus
Method in brief: as §6

[25] = system: Candida auris TDG2211; experiment: microbe, parasite or virus in culture; assay type: cell-based; details: Candidozyma auris, TDG2211; Table 4, extended panel; 24 hours, ≥50% inhibition; read-out: MIC Candida auris TDG2211
Method in brief: (§10)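 MIC = lowest concentration inhibiting growth ≥50% relative to drug-free control, read by OD530 nm after 24 h at 37° C. Medium: RPMI 1640/MOPS/2% glucose, pH 7.0. Inoculum 0.5-5×10^5/mL.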

[26] = system: Candida auris TDG2506; experiment: microbe, parasite or virus in culture; assay type: cell-based; details: Candidozyma auris, TDG2506; Table 4, extended panel; 24 hours, ≥50% inhibition; read-out: MIC Candida auris TDG2506
Method in brief: as §10

[27] = system: C. auris 8984; experiment: Candida panel MIC, serial dilution in 96-well plates; assay type: cell-based, Candida auris; details: Candidozyma auris, 8984; Table 4, extended panel; 24 hours, ≥50% inhibition; read-out: MIC C. auris 8984
Method in brief: as §10

[28] = system: C. auris 8971; experiment: as above; assay type: cell-based, Candida auris; details: Candidozyma auris, 8971; Table 4, extended panel; 24 hours, ≥50% inhibition; read-out: MIC C. auris 8971
Method in brief: as §10

[29] = system: C. auris 8977; experiment: as above; assay type: cell-based, Candida auris; details: Candidozyma auris, 8977; Table 4, extended panel; 24 hours, ≥50% inhibition; read-out: MIC C. auris 8977
Method in brief: as §10

[30] = NCPF3876, Table 4, common panel, 24 hours, ≥50% inhibition, read-out: MIC C. krusei NCPF3876
[31] = Candida albicans, Table 4, common panel, 24 hours, ≥50% inhibition
[32] = NCPF3209, Table 4, common panel, 24 hours, ≥50% inhibition, read-out: MIC C. parapsilosis NCPF3209
[33] = NCPF8760, Table 4, common panel, 24 hours, ≥50% inhibition, read-out: MIC C. tropicalis NCPF8760
[34] = NCPF8018, Table 4, common panel, 24 hours, ≥50% inhibition, read-out: MIC C. glabrata NCPF8018

For N#Cc1ccc(-c2ccc(NC3CCN(CC(O)(Cn4cncn4)c4ccc(F)cc4F)CC3)cc2)cc1 (stereo not drawn) [Compound number 2, 4′-((1-(2-(2,4-difluorophenyl)-2-hydroxy-3-(1H-1,2,4-triazol-1-yl)propyl)piperidin-4-yl)amino)-[1,1′-biphenyl]-4-carbonitrile], the “Minimum inhibitory concentration Aspergillus fumigatus ATCC 16424” value [1] was no more than 0.125, the “Minimum inhibitory concentration Aspergillus fulavus ATCC 204304” value [2] was 0.5 and the “Minimum inhibitory concentration Aspergillus fumigatus ATCC 1028” value [3] was 0.25. For the same compound, the “Minimum inhibitory concentration Aspergillus fumigatus ATCC 10894” value [4] was 0.25, the “Minimum inhibitory concentration Aspergillus carbonarius ATCC 8740” value [5] was 0.25 and the “Minimum inhibitory concentration Aspergillus fumigatus ATCC 13073” value [6] was no more than 0.125. For the same compound, the “Minimum inhibitory concentration Aspergillus fumigatus ATCC 204305” value [7] was no more than 0.125.
In the case of N#Cc1ccc(-c2ccc(NC3CCN(CC(O)(Cn4cncn4)c4ccc(F)cc4F)CC3)cc2)cc1 (stereo not drawn) [Example 2, 4′-((1-(2-(2,4-difluorophenyl)-2-hydroxy-3-(1H-1,2,4-triazol-1-yl)propyl)piperidin-4-yl)amino)-[1,1′-biphenyl]-4-carbonitrile], the MIC [8, 30] was 3 to 125 ng/mL (≈ 0.00583 to 0.243 µM), the MIC [9, 31] was no more than 3.9 ng/mL and the MIC ([9]; Table 6, Candida albicans panel) was no more than 3.9 ng/mL. For the same compound, the MIC [10, 32] was no more than 3 ng/mL, the MIC [11] was 7.81 ng/mL (≈ 0.0152 µM) and the MIC [12] was 31.3 ng/mL (≈ 0.0608 µM). It also gave an MIC [13] of 7.81 to 125 ng/mL (≈ 0.0152 to 0.243 µM), an MIC [14] of 15.6 ng/mL (≈ 0.0303 µM) and an MIC [15] of 3.91 ng/mL (≈ 0.0076 µM). For the same compound, the MIC [16] was 15.6 ng/mL (≈ 0.0303 µM), the MIC [17] was 1.95 to 7.81 ng/mL (≈ 0.00379 to 0.0152 µM) and the MIC ([18]; TDG1102, 24 h) was 3 to 500 ng/mL (≈ 0.00583 to 0.972 µM). The MIC [19] was no more than 3 ng/mL, the MIC [20] was 30 ng/mL (≈ 0.0583 µM) and the MIC [21, 33] was 3 to 250 ng/mL (≈ 0.00583 to 0.486 µM). For the same compound, the “Effectiveness against the Aspergillus strains tested compared to fluconazole” value [22] was “highly effective”, the “Activity against Candida auris including resistant strains” value [23] was “highly active” and the MIC [24, 34] was 125 ng/mL (≈ 0.243 µM). The MIC [25] was 250 ng/mL (≈ 0.486 µM) and the MIC [26] was 3 to 150 ng/mL (≈ 0.00583 to 0.291 µM).
With Cc1ccc(-c2ccc(NC3CCN(CC(O)(Cn4cncn4)c4ccc(F)cc4F)CC3)cc2)cc1 (stereo not drawn) [Example 3, 2-(2,4-Difluorophenyl)-1-(4-((4′-methyl-[1,1′-biphenyl]-4-yl)amino)piperidin-1-yl)-3-(1H-1,2,4-triazol-1-yl)propan-2-ol] the MIC ([8]; NCPF3876, read-out: MIC C. Krusei NCPF3876) was 4 to 16 ng/mL (≈ 0.00794 to 0.0318 µM), the MIC [8, 30] was 4 to 16 ng/mL (≈ 0.00794 to 0.0318 µM) and the MIC [9, 31] was no more than 0.98 ng/mL. For the same compound, the MIC ([10]; NCPF3209, read-out: MIC C. Parapsilosis NCPF3209) was 4 ng/mL (≈ 0.00794 µM), the MIC [10, 32] was 4 ng/mL (≈ 0.00794 µM) and the MIC ([18]; TDG1102, Table 4, extended panel, 24 hours, ≥50% inhibition) was no more than 3 ng/mL. It also gave an MIC [19] of no more than 3 ng/mL, an MIC [20] of 8 to 60 ng/mL (≈ 0.0159 to 0.119 µM) and an MIC [21, 33] of 15 ng/mL (≈ 0.0298 µM). For the same compound, the MIC ([21]; NCPF8760, read-out: MIC C. Tropicalis NCPF8760) was 15 ng/mL (≈ 0.0298 µM), the “Activity against Candida auris including resistant strains” value [23] was “highly active” and the MIC [27] was 6 ng/mL (≈ 0.0119 µM). For the same compound, the MIC [28] was 6 ng/mL (≈ 0.0119 µM), the MIC [29] was 6 ng/mL (≈ 0.0119 µM) and the MIC ([24]; NCPF8018, read-out: MIC C. Glabrata NCPF8018) was 125 ng/mL (≈ 0.248 µM). The MIC [24, 34] was 125 ng/mL (≈ 0.248 µM), the MIC [25] was 6 ng/mL (≈ 0.0119 µM) and the MIC [26] was 6 ng/mL (≈ 0.0119 µM).
